Assay results: patent publication EP0147146A2, “Enhancement of transdermal drug delivery” (AMERICAN HOME PRODUCTS CORPORATION, priority 1983, dated 1985)
Where a name gives a salt, the structure may show the parent alone.

Experiment: in-vitro percutaneous transfer test with nude mouse skin in a diffusion cell
Assay type: in vitro ADME
Method: The test formulation was first impregnated into 1-inch diameter circles of a thin non-woven rayon fabric usually in amounts representing about 20 mg or more per cm^2 of skin. The impregnated fabric was applied to the outside or epidermal side of the skin while the inside or tissue side of the skin was exposed to an aerated and stirred volume of Ringer's injection fluid maintained at about 37° C. Samples were taken at intervals from the stirred solution and assayed for drug content. The calculated total amount of percutaneously transferred drug is expressed as mg drug per cm^2 of exposed skin.
Two circles of non-woven fabric were impregnated with each formulation (designated A1, A2 and B1, B2 respectively) and tested for percutaneous drug transfer across nude mouse skin.
Two circles of nonwoven fabric were impregnated with each formulation, so as to contain 2-3 mg of conjugated estrogens. These were applied to nude mouse skins (6 em^2 exposed surface) for transdermal penetration tests. The average of duplicate tests is given below, in units of µg of transferred estrogen per cm^2 of exposed skin surface.

C[C@]12CC[C@@H]3c4ccc(OS(=O)(=O)O)cc4CC[C@H]3[C@@H]1CC[C@@H]2O [17-B -estradiol-3-sodium sulfate]
flux rates of formulations containing menthol: significantly higher flux rates

C[C@]12CC[C@@H]3c4ccc(O)cc4CC[C@H]3[C@@H]1CC[C@@H]2O [17-β -estradiol]
percutaneous transfer with and without menthol (lipophilic vehicles, nude mouse skin): no significant differences

CCc1cccc2c3c([nH]c12)C(CC)(CC(=O)O)OCC3 (stereo not drawn) [etodolac, 1.8-diethyl-1,3,4,9-tetrahydropyrano[3,4-b] indole-1-acetic acid]
increase in percutaneous transfer in the presence of menthol (with vs without 5% menthol in a glycerol/propylene glycol vehicle, nude mouse skin): about a three fold increase
